Experimental data from ChEMBL document CHEMBL3804811 (J Med Chem, 2016).
≈ marks a conversion by molar mass, not a printed value. Calls of active or inactive are those of the source. No cut-off for these calls is given here.

Experiments:
[1] = Solubility of compound at pH 7 buffer; assay type: physicochemical
[2] = Apparent permeability from apical to basolateral side in human Caco2 cells at 2.5 mg/ml after 2 hrs by reversed-phase HPLC method; assay type: ADME, cell-based; details: Caco-2
[3] = AUC (infinity) in Harlan nu/nu mouse at 10 mg/kg, po administered as single dose by LC-MS/MS analysis; assay type: ADME, organism-based; design: dose 10 mg/kg, route oral, time infinity; details: in vivo
[4] = Half life in Sprague-Dawley rat at 10 mg/kg, po administered as single dose by LC-MS/MS analysis; assay type: ADME, organism-based; details: in vivo
[5] = Oral bioavailability in Sprague-Dawley rat at 10 mg/kg administered as single dose by LC-MS/MS analysis; assay type: ADME, organism-based; details: in vivo
[6] = Cmax in Beagle dog at 10 mg/kg, iv administered as single dose by LC-MS/MS analysis; assay type: ADME, organism-based, Canis lupus familiaris; design: dose 10 mg/kg, route intravenous; details: in vivo
[7] = Oral bioavailability in Beagle dog at 10 mg/kg administered as single dose by LC-MS/MS analysis; assay type: ADME, organism-based, Canis lupus familiaris; details: in vivo
[8] = Antiproliferative activity against human SUP-M2 cells expressing ALK protein incubated for 72 hrs by cell titer-glo assay; assay type: functional, cell-based; details: SUP-M2, 72 h
[9] = target: Tyrosine-protein kinase JAK2 (Homo sapiens, UniProt O60674); assay: Inhibition of JAK2 (unknown origin) in presence of gamma33-ATP
[10] = target: Vascular endothelial growth factor receptor 3 (Homo sapiens, UniProt P35916); assay: Inhibition of VEGFR3 (unknown origin) in presence of gamma33-ATP
[11] = Plasma concentration in Harlan nu/nu mouse at 240 mg/kg, po administered per day for 2 weeks measured 6 hrs post last dose by LC-MS/MS analysis; assay type: ADME, organism-based
[12] = Ratio of drug level in brain to plasma in Harlan nu/nu mouse at 240 mg/kg, po administered per day for 2 weeks measured 6 hrs post last dose by LC-MS/MS analysis; assay type: ADME, organism-based; details: read-out: BPR
NCI-H2228 = details: Homo sapiens
Description: Antitumor activity against human NCI-H2228 cells xenografted in athymic nu/nu mouse assessed as tumor growth inhibition at 30 to 60 mg/kg, po bid administered for 10 days

Vascular endothelial growth factor receptor 3, sequence (P35916 whole entry): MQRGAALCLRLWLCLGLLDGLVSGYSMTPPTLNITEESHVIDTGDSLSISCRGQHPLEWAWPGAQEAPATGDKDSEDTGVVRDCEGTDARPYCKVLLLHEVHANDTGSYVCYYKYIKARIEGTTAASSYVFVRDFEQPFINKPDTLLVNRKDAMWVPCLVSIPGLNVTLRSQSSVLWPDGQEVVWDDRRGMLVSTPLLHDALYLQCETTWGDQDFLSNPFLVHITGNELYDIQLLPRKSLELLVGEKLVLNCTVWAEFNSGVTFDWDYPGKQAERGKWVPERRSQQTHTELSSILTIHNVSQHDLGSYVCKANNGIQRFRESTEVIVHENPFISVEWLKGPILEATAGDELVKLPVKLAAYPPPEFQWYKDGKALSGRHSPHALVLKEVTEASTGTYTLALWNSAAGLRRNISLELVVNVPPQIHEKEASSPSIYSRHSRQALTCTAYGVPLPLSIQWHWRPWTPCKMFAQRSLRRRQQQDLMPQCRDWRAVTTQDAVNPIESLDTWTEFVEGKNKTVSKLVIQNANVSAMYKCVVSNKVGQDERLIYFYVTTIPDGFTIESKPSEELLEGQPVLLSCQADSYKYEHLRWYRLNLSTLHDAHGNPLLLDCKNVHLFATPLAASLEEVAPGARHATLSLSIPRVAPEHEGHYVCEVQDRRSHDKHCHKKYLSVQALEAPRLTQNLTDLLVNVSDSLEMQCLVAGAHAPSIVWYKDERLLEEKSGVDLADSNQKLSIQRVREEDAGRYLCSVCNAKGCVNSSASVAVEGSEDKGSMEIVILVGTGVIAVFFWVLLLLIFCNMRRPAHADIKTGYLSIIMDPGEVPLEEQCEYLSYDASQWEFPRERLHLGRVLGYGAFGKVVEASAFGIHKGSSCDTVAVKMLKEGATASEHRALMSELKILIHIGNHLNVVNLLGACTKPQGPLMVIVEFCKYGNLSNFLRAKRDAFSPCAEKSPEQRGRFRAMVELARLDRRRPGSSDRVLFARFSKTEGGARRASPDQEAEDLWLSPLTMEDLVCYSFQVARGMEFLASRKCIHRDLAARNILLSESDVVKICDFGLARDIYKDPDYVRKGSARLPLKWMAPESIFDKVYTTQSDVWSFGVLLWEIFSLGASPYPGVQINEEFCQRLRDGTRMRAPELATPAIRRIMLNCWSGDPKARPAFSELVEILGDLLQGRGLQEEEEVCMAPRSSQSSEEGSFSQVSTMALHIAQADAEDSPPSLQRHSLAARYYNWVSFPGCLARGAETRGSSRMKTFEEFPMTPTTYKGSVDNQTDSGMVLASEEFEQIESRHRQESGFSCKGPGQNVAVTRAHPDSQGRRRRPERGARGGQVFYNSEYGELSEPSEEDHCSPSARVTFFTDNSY
Tyrosine-protein kinase JAK2, sequence (O60674 whole entry): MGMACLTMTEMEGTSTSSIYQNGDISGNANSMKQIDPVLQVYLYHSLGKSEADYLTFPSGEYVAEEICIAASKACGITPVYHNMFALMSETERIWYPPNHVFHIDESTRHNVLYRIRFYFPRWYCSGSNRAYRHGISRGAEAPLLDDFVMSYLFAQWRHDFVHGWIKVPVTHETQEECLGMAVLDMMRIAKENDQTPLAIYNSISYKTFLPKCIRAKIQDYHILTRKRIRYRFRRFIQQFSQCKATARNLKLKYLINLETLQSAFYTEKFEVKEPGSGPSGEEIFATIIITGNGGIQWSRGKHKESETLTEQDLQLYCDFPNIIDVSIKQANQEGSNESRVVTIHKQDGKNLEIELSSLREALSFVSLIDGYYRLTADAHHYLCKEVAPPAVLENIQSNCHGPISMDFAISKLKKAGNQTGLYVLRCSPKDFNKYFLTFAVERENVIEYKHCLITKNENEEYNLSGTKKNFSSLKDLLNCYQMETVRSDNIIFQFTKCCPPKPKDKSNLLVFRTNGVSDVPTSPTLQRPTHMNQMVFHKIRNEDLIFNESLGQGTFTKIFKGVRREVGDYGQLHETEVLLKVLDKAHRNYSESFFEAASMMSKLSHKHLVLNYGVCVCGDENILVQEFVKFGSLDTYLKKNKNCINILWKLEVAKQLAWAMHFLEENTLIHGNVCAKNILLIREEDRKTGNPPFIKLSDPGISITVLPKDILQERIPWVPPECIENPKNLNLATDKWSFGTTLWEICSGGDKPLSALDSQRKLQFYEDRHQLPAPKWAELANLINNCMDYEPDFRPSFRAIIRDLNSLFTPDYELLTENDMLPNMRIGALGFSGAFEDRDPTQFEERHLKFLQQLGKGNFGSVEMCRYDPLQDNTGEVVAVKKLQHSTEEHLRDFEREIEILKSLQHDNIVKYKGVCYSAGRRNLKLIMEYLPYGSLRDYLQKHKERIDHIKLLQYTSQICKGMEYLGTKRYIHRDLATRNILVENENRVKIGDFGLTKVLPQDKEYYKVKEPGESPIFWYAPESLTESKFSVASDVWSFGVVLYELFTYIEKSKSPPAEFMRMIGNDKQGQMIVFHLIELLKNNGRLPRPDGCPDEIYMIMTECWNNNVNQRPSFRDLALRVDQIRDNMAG

## CN1CCN(c2ccc(C(=O)Nc3n[nH]c4ccc(Cc5cc(F)cc(F)c5)cc34)c(NC3CCOCC3)c2)CC1 [ENTRECTINIB]
[1]
  solubility: 20 µM (≈ 11.2 µg/mL)
[2]
  Papp A→B at 2 h, 2.5 mg/ml: 2.4 ×10⁻⁶ cm/s
[3]
  AUC(0-inf): 17.4 µM·h
[4]
  half-life: 3.8 h
[5]
  bioavailability: 43%
[6]
  Cmax: 8.6 µM
[7]
  bioavailability: 32%
[8]
  IC50: 0.041 µM
[9]
  IC50: 0.04 µM
[10]
  IC50: > 1 µM
[11]
  concentration at 6 h: 4.57 µM
[12]
  Kp at 6 h: 0.43
NCI-H2228
  TGI: Active
